Experiments:
5-HT1A receptors = molecular target: T1, 5-HT1A receptors (Homo sapiens, UniProt P08908); assay: Receptor binding studies, displacement of (3H)-8-OH-DPAT on membranes of HEK293 cells expressing 5-HT1A receptors; conditions: 0.2 nM (3H)-8-OH-DPAT, 22° C.
T1 construct: expressed in transfected cells; host or cells: HEK293
T1 sequence (P08908 1-422): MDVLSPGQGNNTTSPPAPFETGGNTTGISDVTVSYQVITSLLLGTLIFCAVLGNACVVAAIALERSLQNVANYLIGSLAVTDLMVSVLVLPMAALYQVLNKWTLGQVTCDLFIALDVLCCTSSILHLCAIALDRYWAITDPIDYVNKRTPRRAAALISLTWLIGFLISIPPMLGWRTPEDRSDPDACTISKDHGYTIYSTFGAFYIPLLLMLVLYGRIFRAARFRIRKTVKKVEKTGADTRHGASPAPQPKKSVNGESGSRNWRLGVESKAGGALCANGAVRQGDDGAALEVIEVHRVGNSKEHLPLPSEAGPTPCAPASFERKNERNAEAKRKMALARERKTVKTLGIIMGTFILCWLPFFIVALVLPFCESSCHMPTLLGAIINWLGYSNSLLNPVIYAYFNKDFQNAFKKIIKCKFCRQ
Protocol: (§1) HEK293 cells which expressed 5-HT1A or 5-HT1B receptors were cultivated in RPMI 1640 (Life Technologies, Eggenstein, Germany) comprising 10% fetal calf serum. All the culture media were supplemented with 2 mM L-glutamine and 400 mg/l Geneticin G418 (Life Technologies). The cells were grown in a moist atmosphere with 6% CO2 at 37° C. and detached with a buffer comprising 0.0004% EDTA, 0.02% EGTA, 2.68 mM KCl, 1.47 mM KH2PO4, 6.46 mM Na2HPO4 and 136.9 mM NaCl (pH 7.4). The harvested cells were washed once with cold phosphate-buffered Dulbecco's saline solution (PBS), centrifuged (200×g; 10 minutes) and adjusted to a cell density of 10^8 cells per cryovial. After renewed centrifugation, the pellets were resuspended in 1 ml of ice-cold dissolving buffer (5 mM Tris/HCl (pH 7.4), 10% glycerol) and incubated at 4° C. for 30 minutes. The suspension was then centrifuged at 900×g for 10 minutes, the supernatants were removed, and the pellets were stored in liquid nitrogen until used.
(§2) Initially, the affinities of the radio ligands ((^3H)-8-OH-DPAT for 5-HT1A receptors; or (^3H)-5-CT for 5-HT1B receptors) were calculated from saturation plots where triplicate determinations of the specific and nonspecific binding were carried out for each test concentration. Each sample was composed of 50 μg of cellular proteins of the particular membrane preparation, the radio ligand with or without competing compound (5-HT) in a total volume of 0.5 ml. A buffer consisting of 50 mM Tris/HCl (pH 7.4) and 5 mM CaCl2 was used. Incubation was at 22° C. for 9 minutes.
(§3) For Ki determinations, the test compounds were titrated three times in displacement experiments against a fixed concentration of radio ligand ((0.2 nM (^3H)-8-OH-DPAT; or 0.2 nM (^3H)-5-CT). The other test conditions corresponded to those described for the saturation experiments. The total and the nonspecific binding (10 μM 5-HT as competitor of 5-HT1A and 100 μM for 5-HT1B) was determined for each experimental series.
(§4) The incubation for binding and displacement was terminated by filtering and washing the samples on glass fiber filters (GF/B) using a Skatron 7200 cell harvester (Zinsser, Frankfurt, Germany). The sample filters were transferred into scintillation vials comprising 5 ml of scintillator (Ultima Gold XR) and agitated for 1 hour, and then measured in a liquid scintillation counter. Saturation and competition plots were calculated with the aid of a computer program based on LIGAND (Mundson, P J and Reodbard, D; Anal. Biochem. 107, 220 (1980)).

5-HT1B receptors = molecular target: T2, 5-HT1B receptors (Homo sapiens, UniProt P28222); assay: Receptor binding studies, displacement of (3H)-5-CT on membranes of HEK293 cells expressing 5-HT1B receptors; conditions: 0.2 nM (3H)-5-CT, 22° C.
T2 construct: expressed in transfected cells; host or cells: HEK293
T2 sequence (P28222 whole entry): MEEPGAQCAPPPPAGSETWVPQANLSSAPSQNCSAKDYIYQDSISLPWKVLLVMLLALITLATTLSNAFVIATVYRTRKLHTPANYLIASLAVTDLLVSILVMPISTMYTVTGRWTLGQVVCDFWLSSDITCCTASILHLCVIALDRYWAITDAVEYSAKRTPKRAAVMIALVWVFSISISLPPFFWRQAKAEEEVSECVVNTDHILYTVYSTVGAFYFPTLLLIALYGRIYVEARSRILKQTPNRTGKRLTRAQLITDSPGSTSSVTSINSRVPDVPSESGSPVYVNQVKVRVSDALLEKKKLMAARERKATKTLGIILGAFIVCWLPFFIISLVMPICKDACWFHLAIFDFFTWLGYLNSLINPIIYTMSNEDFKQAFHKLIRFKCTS
Protocol: as §1, §2, §3, §4

[1] = system: serotonin release in the cortex; conditions: after systemic administration; cited from earlier work

Structure (SMILES)	melting point	Ki (5-HT1A receptors)	Ki (5-HT1B receptors)	serotonin release in the cortex [1]
CN1CCc2c(sc3ncn(CCN4CCN(c5nsc6cccc(Cl)c56)CC4)c(=O)c23)C1 [Example 5, 3-{2-[4-(4-Chloro-1,2-benzisothiazol-3-yl)piperazin-1-yl]ethyl}-7-methyl-5,6,7,8-tetrahydropyrido[4′,3′:4,5]thieno[2,3-d]pyrimidin-4(3H)-one]	88 to 89 °C			
CN1CCc2c(sc3ncn(CCN4CC=C(c5csc6ccccc56)CC4)c(=O)c23)C1 [Example 28, 3-{2-[4-(1-Benzothien-3-yl)-3,6-dihydropyridin-1 (2H)-yl]ethyl}-7-methyl-5,6,7,8-tetrahydropyrido[4′,3′:4,5]thieno[2,3-d]pyrimidin-4(3H)-one]		1.3 nM	2 nM	
CN1CCc2c(sc3ncn(CCN4CCN(c5nsc6ccccc56)CC4)c(=O)c23)C1 [Example 4, 3-{2-[4-(1,2-Benzisothiazol-3-yl)piperazin-1-yl]ethyl}-7-methyl-5,6,7,8-tetrahydropyrido[4′,3′:4,5]thieno[2,3-d]pyrimidin-4(3H)-one]	82 to 84 °C	1.4 nM	0.9 nM	
COc1ccc2onc(N3CCN(CCn4cnc5sc6c(c5c4=O)CCN(C)C6)CC3)c2c1 [Example 15, 4-(5-Methoxy-1,2-benzisoxazol-3-yl)-1-[2-(7-methyl-4-oxo-5,6,7,8-tetrahydropyrido[4′,3′:4,5]thieno[2,3-d]pyrimidin-3(4H)-yl)ethyl]piperazin-1-ium chloride]		13.7 nM	7.9 nM	
CN1CCc2c(sc3ncn(CCN4CCC(c5cc(-c6cccs6)[nH]n5)CC4)c(=O)c23)C1 [Example 24, 1-[2-(7-Methyl-4-oxo-5,6,7,8-tetrahydropyrido[4′,3′:4,5]thieno[2,3-d]pyrimidin-3(4H)-yl)ethyl]-4-[5-(2-thienyl)-1 H-pyrazol-3-yl]piperidinium chloride]		98.3 nM	286 nM	
CN1CCc2c(sc3ncn(CCN4CCN(c5nc6ccc(Cl)cc6s5)CC4)c(=O)c23)C1 [Example 7, 3-{2-[4-(6-Chloro-1,3-benzothiazol-2-yl)piperazin-1-yl]ethyl}-7-methyl-5,6,7,8-tetrahydropyrido[4′,3′:4,5]thieno[2,3-]pyrimidin-4(3H)-one]	160 to 162 °C			
CN1CCc2c(sc3ncn(CCN4CCN(c5nc6ccccc6s5)CC4)c(=O)c23)C1 [Example 11, 3-{2-[4-(1,3-Benzothiazol-2-yl)piperazin-1-yl]ethyl}-7-methyl-5,6,7,8-tetrahydropyrido[4′,3′:4,5]thieno[2,3-d]pyrimidin-4(3H)-one]	151 to 153 °C			
COc1ccc2[nH]cc(C3=CCN(CCn4cnc5sc6c(c5c4=O)CCN(C)C6)CC3)c2c1 [Example 32, 3-{2-[4-(5-methoxy-1H-indol-3-yl)-3,6-dihydropyridin-1(2H)-yl]ethyl}-7-methyl-5,6,7,8,-tetrahydropyrido[4′,3′:4,5]thieno[2,3-d]pyrimidin-4(3H)-one]		0.5 nM	0.6 nM	
CN1CCc2c(sc3ncn(CCN4CCN(c5n[nH]c6ccccc56)CC4)c(=O)c23)C1 [Example 13, 3-{2-[4-(1H-Indazol-3-yl)piperazin-1-yl]ethyl}-7-methyl-5,6,7,8-tetrahydropyrido[4′,3′:4,5]thieno[2,3-d]pyrimidin-4(3H)-one]		11.5 nM	3.5 nM	
CN1CCc2c(sc3ncn(CCN4CCN(c5nc6cc(C(F)(F)F)ccc6s5)CC4)c(=O)c23)C1 [Example 6, 7-Methyl-3-(2-{4-[5-(trifluoromethyl)-1,3-benzothiazol-2-yl]piperazin-1-yl}ethyl)-5,6,7,8-tetrahydropyrido[4′,3′:4,5]thieno[2,3-d]pyrimidin-4(3H)-one]	166 to 167 °C			
CN1CCc2c(sc3ncn(CCN4CCN(c5snc6ccccc56)CC4)c(=O)c23)C1 [Example 31, 4-(2,1-Benzisothiazol-3-yl)-1-[2-(7-methyl-4-oxo-5,6,7,8-tetrahydropyrido[4′,3′:4,5]thieno[2,3-d]pyrimidin-3(4H)-yl)ethyl]piperazin-1-ium chloride]		42.7 nM	24.3 nM	
CN1CCc2c(sc3ncn(CCN4CCN(c5nc6ccccc6[nH]5)CC4)c(=O)c23)C1 [Example 8, 3-{2-[4-(1H-Benzimidazol-2-yl)piperazin-1-yl]ethyl}-7-methyl-5,6,7,8-tetrahydropyrido[4′,3′:4,5]thieno[2,3-d]pyrimidin-4(3H)-one]	227 to 229 °C			
Cc1ccc2onc(N3CCN(CCn4cnc5sc6c(c5c4=O)CCN(C)C6)CC3)c2c1 [Example 9, 7-Methyl-3-{2-[4-(5-methyl-1,2-benzisoxazol-3-yl)piperazin-1-ium-1-yl]ethyl}-4-oxo-3,4,5,6,7,8-hexahydropyrido[4′,3′:4,5]thieno[2,3-d]spyrimidin-7-ium dichloride]		6.2 nM	4.5 nM	
CN1CCc2c(sc3ncn(CCN4CC=C(c5c[nH]c6ncccc56)CC4)c(=O)c23)C1 [Example 21, 1-[2-(7-Methyl-4-oxo-5,6,7,8-tetrahydropyrido[4′,3′:4,5]thieno[2,3-d]pyrimidin-3(4H)-yl)ethyl]-4-(1H-pyrrolo[2,3-b]pyridin-3-yl)-1,2,3,6-tetrahydropyridinium acetate]		14.6 nM	1 nM	
CN1CCc2c(sc3ncn(CCN4CC=C(c5c[nH]c6ccccc56)CC4)c(=O)c23)C1 [Example 20, 3-{2-[4-(1H-Indol-3-yl)-3,6-dihydropyridin-1(2H)-yl]ethyl}-7-methyl-5,6,7,8-tetrahydropyrido[4′,3′:4,5]thieno[2,3-d]pyrimidin-4(3H)-one]		1.2 nM	1 nM	
COc1ccc2c(c1)c(C1CCN(CCn3cnc4sc5c(c4c3=O)CCN(C)C5)CC1)cn2C [Example 16, 4-(5-Methoxy-1-methyl-1H-indol-3-yl)-1-[2-(7-methyl-4-oxo-5,6,7,8-tetrahydropyrido[4′,3′:4,5]thieno[2,3-d]pyrimidin-3(4H)-yl)ethyl]piperidinium chloride]		1.3 nM	2.3 nM	
COc1ccc(NC(=O)c2ccc(-c3ccc(-c4noc(C)n4)cc3C)cc2)cc1N1CCN(C)CC1 [GR 127 935]				reduced
CN1CCc2c(sc3ncn(CCN4CCN(c5nc6ccccc6o5)CC4)c(=O)c23)C1 [Example 10, 3-{2-[4-(1,3-Benzoxazol-2-yl)piperazin-1-yl]ethyl}-7-methyl-5,6,7,8-tetrahydropyrido[4′,3′:4,5]thieno[2,3-d]pyrimidin-4(3H)-one]	130 to 132 °C			

Reference: US7491729B2, “3-Substituted 3,4-dihydro-thieno[2,3-d]pyrimidin-4-one derivatives, production and use thereof” (Abbott GmbH & Co. KG, priority 2002, dated 2009)
